Target: T1, SGK1 (Homo sapiens, UniProt O00141)
T1 sequence (O00141 1-431): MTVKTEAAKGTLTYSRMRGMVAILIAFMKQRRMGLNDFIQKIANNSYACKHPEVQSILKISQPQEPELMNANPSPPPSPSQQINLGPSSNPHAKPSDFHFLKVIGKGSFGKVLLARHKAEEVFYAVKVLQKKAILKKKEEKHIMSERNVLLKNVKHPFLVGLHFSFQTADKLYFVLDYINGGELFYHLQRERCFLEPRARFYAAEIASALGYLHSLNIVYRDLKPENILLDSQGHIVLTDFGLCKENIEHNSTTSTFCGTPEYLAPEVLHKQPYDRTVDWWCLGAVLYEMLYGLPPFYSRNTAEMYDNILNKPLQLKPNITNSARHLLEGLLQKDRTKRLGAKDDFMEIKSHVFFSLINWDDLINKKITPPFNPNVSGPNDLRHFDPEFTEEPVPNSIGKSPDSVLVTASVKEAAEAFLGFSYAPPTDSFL
Experiment: SGK1 degradation in JIMT1 cells, immunoblot
Assay type: cell-based
Details: JIMT1, up to 3 μM
Description: Figure 3 Characterization of cellular activities of SGK3-PROTAC1 and cisSGK3-PROTAC1. (A) HEK293 cells were first treated for 8 h with 0.03–3 μM SGK3-PROTAC1 and cisSGK3-PROTAC1. One hour before lysis, cells were treated with 3 μM AZD5363. Lysates were subjected to immunoblot analysis with the indicated antibodies. […] Lysates were subjected to immunoblot analysis with the indicated antibodies. (C) HEK293 cells were treated for up to 48 h with SGK3-PROTAC1 (0.3 μM), and lysates were analyzed by immunoblot analysis using the indicated antibodies. (D) HEK293 cells were treated for 24 h with SGK3-PROTAC1. Cells were washed three times with DMEM to wash out the compound, and recovery of SGK3 expression protein was analyzed by immunoblot analysis. (E–G) As in A except that CAMA-1 (E), ZR-75-1 (F), and JIMT-1 (G) cells were employed rather than HEK293 cells. […]
All cell treatments were carried out as described in figure legends, to a final DMSO concentration of 0.1% (v/v). Lysates were quantified. […] Lysate concentration was quantified by Bradford Assay, and 10 μg of lysate was loaded in the LDS sample buffer for SDS-PAGE electrophoresis on Novex 4–12% Bis–Tris gels. […] The signal was produced with near-infrared secondary antibodies and detected using a Licor Biosciences Odyssey System, and the signal was quantified in Image Studio Lite.

## Cc1ccc(F)c(S(=O)(=O)Nc2ccc(-c3nc(OC[C@H]4CN(CCCCCCOCCOCCOCC(=O)N[C@H](C(=O)N5C[C@H](O)C[C@H]5C(=O)NCc5ccc(-c6scnc6C)cc5)C(C)(C)C)CCO4)c4cn[nH]c4n3)cc2)c1 [SGK3-PROTAC1]
  degradation of SGK1: failed to induce degradation of SGK1
